Drawing on PubChem BioAssay (NCI), this text covers TGI and GI50 for 12 molecules.

SMILES strings stand for the structures. Values joined by “and” are separate entries in the source; they are usually repeats but may differ in a detail not shown here. Equal entries are not always repeated.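 Cultured in 96-well plates, cells were exposed to test compound for 48 hours across five concentrations. Abbreviation: GI50, concentration required for 50% inhibition of growth. Definition used: TGI = concentration required for complete inhibition of growth.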

Test systems include SF-268 CNS; SK-MEL-2 melanoma; MDA-MB-435; SW-620 colon; NCI-H522 lung; CCRF-CEM leukemia; SF-295 CNS; T-47D breast; HCT-15 colon; A549 NSCLC.
Common to all, as to experiment: DTP human tumour cell line panel, 48 h

Usually TGI stands for the concentration at which net growth stops. As to `[B]C(=O)NC(CC(C)C)C(=O)NC1c2ccsc2C(=O)C1O` (stereo not given) (tested in a mixture with another compound), the concentration for total growth inhibition (TGI) in the assay on SF-268 CNS, in the assay on SK-MEL-2 melanoma, in the assay with MDA-MB-435, in the assay on SW-620 colon, in the assay with NCI-H522 lung and with CCRF-CEM leukemia was greater than 100 µM in each case. In addition, the TGI in the assay with SF-295 CNS, with T-47D breast, with HCT-15 colon and in the assay on A549 NSCLC was greater than 100 µM throughout.
By GI50 is commonly meant the concentration at which growth is held to half of that of the control. Take `COC(=O)/C=C/c1cc(OC)c2c(c1)C(C(=O)OC)C(c1ccc(O)c(OC)c1)O2` (stereo not given): the TGI in the assay with SF-268 CNS is greater than 100 µM; with SK-MEL-2 melanoma, greater than 82.2 µM; in the assay with MDA-MB-435, 4.49 µM and 1.32 µM; with SW-620 colon it was greater than 100 µM; with NCI-H522 lung, > 27.5 µM and 25.5 µM and 8.16 µM; with SF-295 CNS it was 11.8 µM and 12.6 µM and 10 µM. Also, the TGI in the assay on T-47D breast was > 100 µM and 31.9 µM and > 57.6 µM; in the assay on HCT-15 colon, > 100 µM and > 53.7 µM and 56.6 µM; in the assay with A549 NSCLC, greater than 100 µM. Besides, the GI50 is 3.16 µM and 3.87 µM and 9.94 µM in the assay on SK-MEL-2 melanoma; 1.13 µM and 0.259 µM in the assay on MDA-MB-435; 2.93 µM and 1.45 µM and 1.46 µM with SW-620 colon; 3.96 µM and 3.17 µM and 1.92 µM in the assay on NCI-H522 lung; 3.4 µM and 3.35 µM and 0.699 µM in the assay with CCRF-CEM leukemia; 2.74 µM and 1.52 µM and 0.629 µM in the assay with HCT-15 colon.
Regarding `Nc1nc(=O)n(C2CC(O)C(CO)O2)c2nc(-c3ccc(-c4ccccc4)cc3)cnc12` (stereo not given), the TGI is 79 µM with SF-268 CNS; greater than 100 µM in the assay with SK-MEL-2 melanoma; greater than 100 µM in the assay with MDA-MB-435; greater than 100 µM in the assay with SW-620 colon; 48.9 µM in the assay on NCI-H522 lung; greater than 100 µM in the assay with CCRF-CEM leukemia. Moreover, the TGI is greater than 100 µM with SF-295 CNS, 57.4 µM in the assay on T-47D breast, greater than 100 µM with HCT-15 colon and greater than 100 µM in the assay on A549 NSCLC.
Consider `CC(C)(C)OC(=O)/C=C/[C@@H](CCC(=O)/C=C/[C@H](/C=C\CCCC(=O)O)NC1(c2ccccc2)c2ccccc2-c2ccccc21)O[Si](C)(C)C(C)(C)C`, for which the TGI with SF-268 CNS was 35.2 µM; in the assay with SK-MEL-2 melanoma, 30.1 µM; in the assay on MDA-MB-435, 48.7 µM; with SW-620 colon it was 81.6 µM; in the assay with NCI-H522 lung, 34.6 µM; in the assay with CCRF-CEM leukemia it was greater than 100 µM. For the same molecule, the TGI came out at 33.5 µM in the assay on SF-295 CNS, 55.6 µM in the assay on T-47D breast, 30.2 µM in the assay with HCT-15 colon and 37.2 µM in the assay with A549 NSCLC.
Turning to `O=C1CN2CCN(CC2)CC(=O)Nc2ccc(cc2)S(=O)(=O)c2ccc(cc2)NC(=O)CN2CCN(CC2)CC(=O)Nc2ccc(cc2)S(=O)(=O)c2ccc(cc2)N1`, the TGI in the assay with SF-268 CNS was 38.7 µM; in the assay with SK-MEL-2 melanoma it was greater than 92.3 µM; in the assay on MDA-MB-435, greater than 89.7 µM; in the assay on SW-620 colon, 50.7 µM; in the assay with NCI-H522 lung it was 22.1 µM; with CCRF-CEM leukemia, 1.81 µM. In addition, the TGI with SF-295 CNS is greater than 100 µM; in the assay with T-47D breast, greater than 100 µM; in the assay on HCT-15 colon, 30.7 µM; with A549 NSCLC, greater than 100 µM.
Take `COc1ccc(/C=C/C(=O)N[C@@H]2C(=O)N3[C@@H]2SC(C)(C)[C@@H]3C(=O)O)cc1OC`: the TGI in the assay on SF-268 CNS, in the assay with SK-MEL-2 melanoma, with MDA-MB-435, in the assay on SW-620 colon, with NCI-H522 lung and in the assay with CCRF-CEM leukemia was greater than 100 µM each time. Further, the TGI in the assay on SF-295 CNS, with T-47D breast, with HCT-15 colon and in the assay on A549 NSCLC was greater than 100 µM throughout.
Consider `O=c1oc2ccc([N+](=O)[O-])cc2cc1-c1csc(-c2ccccc2)n1`, for which the TGI in the assay on SF-268 CNS, in the assay on SK-MEL-2 melanoma, with MDA-MB-435, in the assay on SW-620 colon, with NCI-H522 lung and in the assay on CCRF-CEM leukemia was greater than 100 µM each time. The TGI in the assay on SF-295 CNS, in the assay with T-47D breast, with HCT-15 colon and in the assay with A549 NSCLC was greater than 100 µM in each case.
As for `CCOc1ccnc2c(OC)c(C)c3nc4ccccc4nc3c12`, the TGI in the assay with SF-268 CNS, in the assay on SK-MEL-2 melanoma, in the assay with MDA-MB-435, in the assay with SW-620 colon, in the assay on NCI-H522 lung and in the assay on CCRF-CEM leukemia was greater than 100 µM throughout. Further, the TGI is greater than 100 µM with SF-295 CNS, 67 µM in the assay with T-47D breast, greater than 100 µM with HCT-15 colon and greater than 100 µM with A549 NSCLC.
With `O=C1CCCC1C(O)(C(F)(F)Cl)C(F)(F)Cl` (stereo not given), the TGI in the assay with SF-268 CNS, with SK-MEL-2 melanoma, in the assay with MDA-MB-435, in the assay on SW-620 colon, in the assay with NCI-H522 lung and in the assay on CCRF-CEM leukemia was greater than 10 µM each time. Besides, the TGI with SF-295 CNS, in the assay on T-47D breast, in the assay on HCT-15 colon and in the assay on A549 NSCLC was greater than 10 µM each time.
In the case of `COc1ccc(-c2cc(-c3ccncc3)nc(N)c2-c2ccc(F)cc2)cc1`, the TGI in the assay on SF-268 CNS was greater than 100 µM; in the assay with SK-MEL-2 melanoma, greater than 100 µM; with MDA-MB-435, greater than 100 µM; in the assay on SW-620 colon it was greater than 100 µM; in the assay with NCI-H522 lung, 27.1 µM; in the assay on CCRF-CEM leukemia, greater than 100 µM. Moreover, the TGI with SF-295 CNS, in the assay with T-47D breast, in the assay on HCT-15 colon and in the assay on A549 NSCLC was greater than 100 µM throughout.
For the molecule `O=C(O)COc1cccc2ccccc(=O)c12`, the TGI in the assay with SF-268 CNS, in the assay with SK-MEL-2 melanoma, with MDA-MB-435, with SW-620 colon, in the assay on NCI-H522 lung and in the assay with CCRF-CEM leukemia was greater than 100 µM in each case. The TGI with SF-295 CNS, in the assay with T-47D breast, in the assay on HCT-15 colon and with A549 NSCLC was greater than 100 µM in each case.
Regarding `O=C1C=C(NCCc2ccc(O)cc2)C(=O)C=C1NCCc1ccc(O)cc1`, the TGI with SF-268 CNS, with SK-MEL-2 melanoma, in the assay on MDA-MB-435, in the assay on SW-620 colon, in the assay with NCI-H522 lung and in the assay on CCRF-CEM leukemia was greater than 100 µM each time. Also, the TGI with SF-295 CNS, in the assay on T-47D breast, with HCT-15 colon and in the assay with A549 NSCLC was greater than 100 µM throughout.
